We go through one substance from US20260294946A1, “METHOD TO REDUCE FEED CONVERSION RATIO IN A FARMED ANIMAL” (Inbiose N.V., priority 2023, published 2026).

The nature of this data set: Trial in calves: health and safety observation (adverse effects, mortality, diarrhea). The format is in vivo, Holstein Friesian calves. As to conditions: after 12 weeks. From the text: Holstein Friesian calves (2- to 3-week-old, 95% male) were transported from different farms to the experimental facility of Denkavit (Voorthuizen, The Netherlands) where the animals were reared. The calves were randomly and gender-equally divided in four groups based on experimental calf milk replacer (CMR): group A (placebo—standard CMR powder of the farm), group B (standard CMR powder supplemented with 0.005% dry wt. 2′FL), group C (standard CMR powder supplemented with 0.025% dry wt. 3′SL and 0.015% w/w 6′SL) and group D (standard CMR powder supplemented with 0.005% dry wt. 2′FL, 0.025% dry wt. 3′SL and 0.015% dry wt. 6′SL). The calf milk replacer was administered as a liquid to the calves (water was added to the CMR powder to obtain 150 grams CMR powder per liter liquid CMR). Each group involved 100 calves, assigned into four rows (25 calves per row) of two compartment blocks. […]
Calves were followed up by the farm staff since arrival until 12 weeks. Fecal consistency in scale 1-4 (Larson et al., 1977, J. Dairy Science, 60(6): p. 989-991) was recorded daily for the first ten days since arrival. […] Disease incidences and medicinal usage based on individual treatments were recorded to compare between treatment groups. […] Live weight of the animals was monitored at arrival (d1), two weeks (W2), six weeks (W6), ten weeks (W10) and 12 weeks (W12) since arrival. […]

2′-fucosyllactose [2′FL] came in with an incidence of diarrhea of 0%.
